Source: patent publication US11149277B2, “Method of producing enriched exosomes” (National Health Research Institutes, priority 2016, dated 2021)

Experiments:
[1] = test system: NAMECs; experiment: RT2 Profiler PCR arrays of signaling pathway target genes; assay type: cell-based, human; settings: 48-hour treatment
Procedure: The percentages of the target genes which, relative to NAMEC control cells, were inhibited, unchanged, or activated in GW627368X-treated NAMECs are presented in the plot.
To evaluate whether there is selective release of components of alternative signaling pathways, the activation and suppression of signaling pathways in GW-treated NAMECs were analyzed using RT2 Profiler PCR arrays. […] The decrease of p-Akt in GW-treated NAMECs and the enrichment of p-Akt in GW induced exosomes was reflected in inactivation of PI3K/Akt-signaling. Thus, EP4 antagonists are likely to interfere with the Akt-dependent signaling pathway by decreasing cellular p-Akt via exosome release.

[2] = test system: mesenchymal stem cells (MSCs); experiment: EV/exosome release from mesenchymal stem cells; assay type: cell-based; settings: GW for 8 days
Excerpt: FIG. 10 includes blots and a graph. (A) is a graph showing vesicle number analysis of GW-treated mesenchymal stem cells (MSCs) P4 fractions. The CM-P4 GW-treated MSCs were collected and subjected to NanoSight Nanoparticle Tracking Analysis (NTA). Quantification of EV/exosome release is shown as the ratio of [vesicle number]/[cell number]. Data are means±SEM (n=3). ***P≤0.001. (B) is a set of blots showing the protein contents measured in the EV/exosome fraction released by MSCs treated with vehicle DMSO (MSC) or EP4 antagonists (MSCGW). The culture media (D1-4: conditioned medium from day 1 to day 4; D5-8: conditioned medium from day 5 to day 8) were collected from MSCs treated with vehicle (MSC), or GW (MSCGW) for 8 days. (C) is a set of blots showing the protein contents measured in the EV/exosome fraction released by neural stem cells (NSCs) treated with vehicle DMSO or EP4 antagonists. […]
(A) Vesicle number of GW-treated MSC P4 fractions was analyzed. […] (B) Proteins were measured in the EV/exosome fraction released by MSCs treated with vehicle DMSO, EP4 antagonists (GW), or EP4 agonist PGE2. […] (C) Cytokines were measured in the EV/exosome fraction released by MSCs treated with DMSO (MSC) or EP4 antagonist (MSCGW). […] EV/exosome cytokines released by the same number of MSCs were measured using cytokine arrays (C) and Bio-plex (D; IL-10). […]

[3] = test system: mesenchymal stem cells (MSCs); experiment: Osteogenic, adipogenic and neural differentiation of MSCs; assay type: cell-based; settings: GW-treated MSCs
Procedure: (A) and (B) show osteogenic differentiation of MSCs and EP4 antagonist GW-treated MSCs. MSCs were cultured in osteogenic differentiation medium and then stained with Alizarin Red S. Osteogenic differentiation was quantified by measuring the optical density (OD) of Alizarin Red S staining. […] MSCs were cultured in adipogenic differentiation medium. […] MSCs were cultured in neural differentiation medium for 7 or 14 days and then analyzed for the expression of neuronal marker tublin β3 and NeuN using western blotting.
GW-treated MSCs were cultured in osteogenic differentiation medium, adipogenic differentiation medium and neuron differentiation medium, respectively.

[4] = test system: MCF-7 cells; experiment: NTA and EV protein of CM-P4 fractions of MCF-7 cells; assay type: cell-based, human; settings: increasing concentrations of GW
Excerpt: (A) Quantification of EV/exosome release, shown as the number of particles in the CM-P4 fractions released per cell, from MCF-7 and MDA-MB-231 breast cancer cells treated with vehicle or with the indicated concentrations of GW627368X. Particles in the P4 fractions were counted using nanoparticle tracking analysis. Data are means±SEM (n=10). *P≤0.05, ***P≤0.001. (B) Quantification of the total EV protein released from MCF-7 and MDA-MB-231 cells treated with vehicle or with the indicated concentrations of GW627368X. The amounts (m) of protein present per cell in the conditioned medium P4 fractions are presented as means±SEM (n=3). *P≤0.05; (C) Protein levels in the P4 EV/exosome fractions and cell lysates, analyzed by Western blot. Culture media and cell lysates were collected from the same numbers of MCF-7 and MDA-MB-231 cells treated with vehicle or with GW627368X (GW), at the indicated concentrations, for 4 days. The P4 fractions of the culture media, containing EVs, were isolated. […]
We next examined whether blocking EP4-mediated signaling with an EP4 antagonist can elicit EV-mediated removal of CSC proteins (e.g., mesenchymal markers and stem cell markers) in the human breast carcinoma MCF-7 and MDA-MB-231 cell lines. P4 fractions from the conditioned media (CM-P4) of GW-treated MCF-7 and MDA-MB-231 cells were analyzed using NTA (FIG. 21, A). […]

CCOc1c2c(c(OCC)c3ccccc13)C(=O)N(c1ccc(CC(=O)NS(=O)(=O)c3ccccc3)cc1)C2 [GW627368X]
signaling pathways most inhibited [1]: PI3K/Akt, TGF-β, Wnt and androgen pathways | release of EVs/exosomes from MSCs [2]: increased the release of EVs/exosomes | abilities to differentiate into osteoblasts, adipocytes or nerve cells vs non-treated MSCs [3]: much lowered | numbers of EVs released [4]: modestly increased
